{
  "source": "patent US20080207864A1",
  "about": "“Organosilanes, Process For Production of the Same, and Use Thereof” (priority 2004, published 2008)",
  "experiment": "Solubility in an organic solvent",
  "format": "physicochemical",
  "settings": "1 μml of compound added to 1 ml solvent, mixed 15 minutes; chloroform for Examples 7 to 8, toluene for Examples 9 to 10 and Comparative Example 1",
  "method": "Solubility of organic silane compounds synthesized in Examples 7 to 10, and 6,8,11,13-tetra(N,N-diphenylamino)pentacene of Comparative Example 1 in an organic solvent was assessed. More particularly, 1 μml of each compound was added to 1 ml of the following organic solvent, and this was mixed for 15 minutes.\nExamples 9 to 10 and Comparative Example 1\nEach of organic silane compounds of Examples 7 to 10 was dissolved in an organic solvent to obtain a transparent solution.",
  "data": [
    {"smiles": "c1ccc(N(c2ccccc2)c2ccc(N(c3ccccc3)c3ccccc3)c3cc4c(N(c5ccccc5)c5ccccc5)c5cc6ccccc6cc5c(N(c5ccccc5)c5ccccc5)c4cc23)cc1", "note": "[Comparative Example 1, 6,8,11,13-tetra(N,N-diphenylamino)pentacene]", "values": [
      {"measurement": "Solubility in an organic solvent", "value": "only dispersed and not dissolved in an organic solvent"}
    ]}
  ]
}
